Key:
Type in all cases: functional
SF-539 = test: Cytotoxicity against human SF539 cells assessed as cell growth at 1 uM after 48 hrs by sulforhodamine B assay relative to control; settings: SF-539, 48 h, read-out: Activity
NCI-H226 [1] = test: Cytotoxicity against human NCI-H226 cells assessed as cell growth at 0.1 uM after 48 hrs by sulforhodamine B assay relative to control; settings: NCI-H226, 48 h, read-out: Activity
HCT-116 [2] = test: Cytotoxicity against human HCT116 cells assessed as cell growth at 0.01 uM after 48 hrs by sulforhodamine B assay relative to control; settings: HCT-116, 48 h, read-out: Activity
PC-3 [3] = test: Cytotoxicity against human PC3 cells assessed as cell growth at 100 uM after 48 hrs by sulforhodamine B assay relative to control; settings: PC-3, 48 h, read-out: Activity
UO-31 [4] = test: Cytotoxicity against human UO31 cells assessed as growth inhibition after 48 hrs by sulforhodamine B assay; settings: UO-31, 48 h
A549 = test: Cytotoxicity against human A549/ATCC cells assessed as cell growth at 100 uM after 48 hrs by sulforhodamine B assay relative to control; settings: A549, 48 h, read-out: Activity
UACC-257 = test: Cytotoxicity against human UACC257 cells assessed as cell growth at 0.01 uM after 48 hrs by sulforhodamine B assay relative to control; settings: UACC-257, 48 h, read-out: Activity
NCI-H460 [5] = test: Cytotoxicity against human NCI-H460 cells assessed as cell growth at 1 uM after 48 hrs by sulforhodamine B assay relative to control; settings: NCI-H460, 48 h, read-out: Activity
NCI-H23 = test: Cytotoxicity against human NCI-H23 cells assessed as cell growth at 0.1 uM after 48 hrs by sulforhodamine B assay relative to control; settings: NCI-H23, 48 h, read-out: Activity
SW-620 [6] = test: Cytotoxicity against human SW620 cells assessed as cell growth at 0.1 uM after 48 hrs by sulforhodamine B assay relative to control; settings: SW-620, 48 h, read-out: Activity
BT-549 = test: Cytotoxicity against human BT549 cells assessed as cell growth at 1 uM after 48 hrs by sulforhodamine B assay relative to control; settings: BT-549, 48 h, read-out: Activity
ACHN = test: Cytotoxicity against human ACHN cells assessed as cell growth at 0.1 uM after 48 hrs by sulforhodamine B assay relative to control; settings: read-out: Activity
COLO 205 = test: Cytotoxicity against human COLO205 cells assessed as cell growth at 100 uM after 48 hrs by sulforhodamine B assay relative to control; settings: COLO 205, 48 h, read-out: Activity
T47D = test: Cytotoxicity against human T47D cells assessed as cell growth at 10 uM after 48 hrs by sulforhodamine B assay relative to control; settings: read-out: Activity
MCF7 = test: Cytotoxicity against human MCF7 cells assessed as cell growth at 0.1 uM after 48 hrs by sulforhodamine B assay relative to control; settings: MCF7, 48 h, read-out: Activity
K562 = test: Cytotoxicity against human K562 cells assessed as cell growth at 1 uM after 48 hrs by sulforhodamine B assay relative to control; settings: K562, 48 h, read-out: Activity
HCC 2998 = test: Cytotoxicity against human HCC2998 cells assessed as growth inhibition after 48 hrs by sulforhodamine B assay; settings: HCC 2998, 48 h
PC-3 [7] = test: Cytotoxicity against human PC3 cells assessed as cell growth at 0.1 uM after 48 hrs by sulforhodamine B assay relative to control; settings: PC-3, 48 h, read-out: Activity
A498 = test: Cytotoxicity against human A498 cells assessed as cell growth at 100 uM after 48 hrs by sulforhodamine B assay relative to control; settings: A498, 48 h, read-out: Activity
NCI-H522 = test: Cytotoxicity against human NCI-H522 cells assessed as cell growth at 0.1 uM after 48 hrs by sulforhodamine B assay relative to control; settings: NCI-H522, 48 h, read-out: Activity
DU-145 = test: Cytotoxicity against human DU145 cells assessed as cell growth at 100 uM after 48 hrs by sulforhodamine B assay relative to control; settings: DU-145, 48 h, read-out: Activity
KM12 = test: Cytotoxicity against human KM12 cells assessed as cell growth at 10 uM after 48 hrs by sulforhodamine B assay relative to control; settings: KM12, 48 h, read-out: Activity
OVCAR-8 [8] = test: Cytotoxicity against human OVCAR8 cells assessed as cell growth at 0.1 uM after 48 hrs by sulforhodamine B assay relative to control; settings: OVCAR-8, 48 h, read-out: Activity
SW-620 [9] = test: Cytotoxicity against human SW620 cells assessed as cell growth at 0.01 uM after 48 hrs by sulforhodamine B assay relative to control; settings: SW-620, 48 h, read-out: Activity
IGROV-1 = test: Cytotoxicity against human IGROV1 cells assessed as cell growth at 10 uM after 48 hrs by sulforhodamine B assay relative to control; settings: IGROV-1, 48 h, read-out: Activity
SNB-19 = test: Cytotoxicity against human SNB19 cells assessed as growth inhibition after 48 hrs by sulforhodamine B assay; settings: SNB-19, 48 h; for CC50: read-out: LC50 (the source's name)
SK-MEL-5 = test: Cytotoxicity against human SK-MEL-5 cells assessed as cell growth at 0.1 uM after 48 hrs by sulforhodamine B assay relative to control; settings: SK-MEL-5, 48 h, read-out: Activity
HL-60(TB) [10] = test: Cytotoxicity against human HL-60(TB) cells assessed as cell growth at 1 uM after 48 hrs by sulforhodamine B assay relative to control; settings: HL-60, 48 h, read-out: Activity
OVCAR-8 [11] = test: Cytotoxicity against human OVCAR8 cells assessed as cell growth at 100 uM after 48 hrs by sulforhodamine B assay relative to control; settings: OVCAR-8, 48 h, read-out: Activity
HCT-116 [12] = test: Cytotoxicity against human HCT116 cells assessed as cell growth at 0.1 uM after 48 hrs by sulforhodamine B assay relative to control; settings: HCT-116, 48 h, read-out: Activity
HL-60(TB) [13] = test: Cytotoxicity against human HL-60(TB) cells assessed as growth inhibition after 48 hrs by sulforhodamine B assay; settings: HL-60, 48 h
UO-31 [14] = test: Cytotoxicity against human UO31 cells assessed as cell growth at 10 uM after 48 hrs by sulforhodamine B assay relative to control; settings: UO-31, 48 h, read-out: Activity
SK-OV-3 = test: Cytotoxicity against human SKOV3 cells assessed as growth inhibition after 48 hrs by sulforhodamine B assay; settings: SK-OV-3, 48 h
NCI-H460 [15] = test: Cytotoxicity against human NCI-H460 cells assessed as cell growth at 0.1 uM after 48 hrs by sulforhodamine B assay relative to control; settings: NCI-H460, 48 h, read-out: Activity
NCI-H226 [16] = test: Cytotoxicity against human NCI-H226 cells assessed as cell growth at 1 uM after 48 hrs by sulforhodamine B assay relative to control; settings: NCI-H226, 48 h, read-out: Activity

COc1cc(C(=O)/C=C/c2cc(-c3ccc4c(c3)OCO4)n[nH]2)cc(OC)c1OC
growth at 1 µM (SF-539): 68%
growth at 0.1 µM (NCI-H226 [1]): 93%
growth at 0.01 µM (HCT-116 [2]): 101%
growth at 100 µM (PC-3 [3]): -84%
GI50 (UO-31 [4]): 1.34 µM
LC50 (UO-31 [4]): 5.33 µM
TGI (UO-31 [4]): 2.67 µM
growth at 100 µM (A549): -80%
growth at 0.01 µM (UACC-257): 98%
growth at 1 µM (NCI-H460 [5]): 90%
growth at 0.1 µM (NCI-H23): 93%
growth at 0.1 µM (SW-620 [6]): 95%
growth at 1 µM (BT-549): 89%
growth at 0.1 µM (ACHN): 103%
growth at 100 µM (COLO 205): -74%
growth at 10 µM (T47D): -34%
growth at 0.1 µM (MCF7): 94%
growth at 1 µM (K562): 74%
GI50 (HCC 2998): 2.02 µM
LC50 (HCC 2998): 8.23 µM
TGI (HCC 2998): 4.07 µM
growth at 0.1 µM (PC-3 [7]): 95%
growth at 100 µM (A498): -98%
growth at 0.1 µM (NCI-H522): 90%
growth at 100 µM (DU-145): -97%
growth at 10 µM (KM12): -66%
growth at 0.1 µM (OVCAR-8 [8]): 100%
growth at 0.01 µM (SW-620 [9]): 98%
growth at 10 µM (IGROV-1): -26%
GI50 (SNB-19): 2.34 µM
TGI (SNB-19): 11.7 µM
CC50 (SNB-19): 35.6 µM
growth at 0.1 µM (SK-MEL-5): 95%
growth at 1 µM (HL-60(TB) [10]): 85%
growth at 100 µM (OVCAR-8 [11]): -92%
growth at 0.1 µM (HCT-116 [12]): 100%
GI50 (HL-60(TB) [13]): 2.17 µM
LC50 (HL-60(TB) [13]): > 100 µM
TGI (HL-60(TB) [13]): 6.49 µM
growth at 10 µM (UO-31 [14]): -96%
GI50 (SK-OV-3): 4.44 µM
LC50 (SK-OV-3): 38.8 µM
TGI (SK-OV-3): 14.6 µM
growth at 0.1 µM (NCI-H460 [15]): 100%
growth at 1 µM (NCI-H226 [16]): 70%

COc1cc(-c2cc(/C=C/C(=O)c3ccc(N)cc3)[nH]n2)cc(OC)c1OC
growth at 1 µM (SF-539): 69%
growth at 0.1 µM (NCI-H226 [1]): 98%
growth at 0.01 µM (HCT-116 [2]): 95%
growth at 100 µM (PC-3 [3]): -39%
GI50 (UO-31 [4]): 1.36 µM
LC50 (UO-31 [4]): 6 µM
TGI (UO-31 [4]): 2.86 µM
growth at 100 µM (A549): -52%
growth at 0.01 µM (UACC-257): 94%
growth at 1 µM (NCI-H460 [5]): 78%
growth at 0.1 µM (NCI-H23): 105%
growth at 0.1 µM (SW-620 [6]): 95%
growth at 1 µM (BT-549): 73%
growth at 0.1 µM (ACHN): 97%
growth at 100 µM (COLO 205): -78%
growth at 10 µM (T47D): -38%
growth at 0.1 µM (MCF7): 91%
growth at 1 µM (K562): 43%
GI50 (HCC 2998): 2.01 µM
LC50 (HCC 2998): 6.53 µM
TGI (HCC 2998): 3.63 µM
growth at 0.1 µM (PC-3 [7]): 94%
growth at 100 µM (A498): -96%
growth at 0.1 µM (NCI-H522): 92%
growth at 100 µM (DU-145): -98%
growth at 10 µM (KM12): -67%
growth at 0.1 µM (OVCAR-8 [8]): 98%
growth at 0.01 µM (SW-620 [9]): 95%
growth at 10 µM (IGROV-1): 1%
GI50 (SNB-19): 2.34 µM
TGI (SNB-19): 9.98 µM
CC50 (SNB-19): 34 µM
growth at 0.1 µM (SK-MEL-5): 95%
growth at 1 µM (HL-60(TB) [10]): 66%
growth at 100 µM (OVCAR-8 [11]): -91%
growth at 0.1 µM (HCT-116 [12]): 97%
GI50 (HL-60(TB) [13]): 1.74 µM
LC50 (HL-60(TB) [13]): > 100 µM
TGI (HL-60(TB) [13]): 10.8 µM
growth at 10 µM (UO-31 [14]): -84%
GI50 (SK-OV-3): 2.99 µM
LC50 (SK-OV-3): 28.9 µM
TGI (SK-OV-3): 8.32 µM
growth at 0.1 µM (NCI-H460 [15]): 102%
growth at 1 µM (NCI-H226 [16]): 88%
